Results as given in US20240226232A9, “PROTEIN-BASED THERAPIES FOR OCULAR CONDITIONS” (The Regents of the University of Colorado, A Body Corporate, priority 2021, published 2024).

Tests used:
[1] = tested on: Human retinal endothelial cells (HRECs); test: Pro-inflammatory cytokine-mediated apoptosis of HRECs, cleaved caspase-3 Western blot; assay type: cell-based; settings: 200 μg/mL peptide for three hours, then cytokine mixture (CM) 48 hours, CM only approx. 1:1
Method: The sequence of the first scrambled control peptide was […] (SEQ ID NO: 4), and the sequence of the second scrambled control peptide was […] (SEQ ID NO: 5). All test cells were then treated with a combination of pro-inflammatory cytokines (IFN-γ at 50 U/mL+TNF-α at 20 ng/mL+IL-1β at 20 ng/mL) for 48 hours.
Cell lysates were prepared using 1×RIPA buffer containing a protease inhibitor cocktail. Protein concentrations of the cell lysates were measured using the BCA method, and 25 μg of protein were used for immunoblotting. To measure HREC apoptosis, the cells were immunostained for active (cleaved) caspase-3, specifically, which is a marker for apoptosis. β-actin antibody staining was used as a control for measuring levels of a housekeeping protein and for calculating protein density compared to caspase-3 levels.

RGCs [2] = test: Microbead mouse model of ocular hypertension, Brn3a-positive RGC count and βIII-tubulin staining after intravitreal peptide; assay type: in vivo, mice; settings: 1 μg intravitreal once weekly for three weeks; for RGCs per mm^2 in retina after six weeks: control almost 3,400, vehicle less than 2,300
Method: The first ocular hypertension model was generated by initially anesthetizing mice via intraperitoneal injection of ketamine/xylazine supplemented with a topical application of 0.5% proparacaine hydrochloride. […] The cornea was gently punctured near the center using a 33G needle, and a small air bubble was injected to lift the anterior chamber of the eye. […] An antibiotic ointment was applied topically on the injected eye to prevent infection.
The intraocular pressure was measured weekly for six weeks using a tonometer. In particular, the mice were placed in an anesthetic chamber filled with a sustained flow of isoflurane (5% isoflurane at 2 L/minute mixed with oxygen). The tonometer took five measurements for each weekly check-in, eliminated the high and low readings, and generated an average intraocular pressure from the remaining readings for each mouse.
After six weeks of microbead injection, the eyes were dissected out and post-fixed with 4% PFA overnight at 4° C. The retinas were subsequently dissected out and washed three times in PBS before blocking (5% normal donkey serum and 1% Triton X-100 in PBS) overnight. Whole-mount retinas were then immunostained for Brn3a and βIII-tubulin (1:500 dilution), which are markers for RGCs and axonal cells, respectively. The retinas were then stained with Alexa Fluor 488 donkey anti-mouse or Texas red-conjugated goat anti-rabbit IgG (1:250 dilution). Four image fields from each retinal region were obtained using a 20× lens with a Zeiss confocal. The Brn3a-positive RGC numbers were counted (cells/mm^2) in the mid-peripheral regions from four quadrants of the whole-mounted retina using the ImageJ software (NIH). Contralateral uninjured eyes were used as a control.

RGCs [3] = test: Silicone oil mouse model of ocular hypertension, Brn3a-positive RGC count after intravitreal peptide; assay type: in vivo, mice; settings: single 1 μg intravitreal dose, day 28
Text: The second ocular hypertension model was generated by anesthetizing mice via intraperitoneal injection of ketamine/xylazine supplemented with topical application of 0.5% proparacaine hydrochloride. A 33G needle was tunneled through the cornea of each tested eye at the superotemporal side close to the limbus to reach the anterior chamber without injuring the lens or iris. […] After the injection, the upper eyelid was gently massaged to close the corneal incision and minimize oil leakage, and veterinary antibiotic ointment was applied to the surface of the injected eye to prevent infection.
After two weeks, the silicone oil droplet was removed. […] Veterinary antibiotic ointment was applied to the surface of the eye after oil removal.
The intraocular pressure of each eye was monitored once weekly until four weeks after silicone oil injection using a tonometer under anesthesia with a sustained flow of isoflurane (5% isoflurane at 2 L/minute mixed with oxygen). Two weeks after oil removal (day 28), retinas were removed and immunostained with Brn3a and βIII-tubulin antibodies to visualize and count the surviving RGCs.

retinal capillary cells = test: I/R injury mouse model, acellular retinal capillary count; assay type: in vivo, C57BL/6J mice; settings: 0.5 μg intravitreal immediately after I/R injury and again after one week; day 14
Method: This ocular hypertension model was generated by initially anesthetizing 12-week-old C57BL/6J mice via intraperitoneal injection of ketamine/xylazine supplemented with a topical application of 0.5% proparacaine hydrochloride. To perform the I/R injury, the right eye was cannulated into the anterior chamber with a 33-gauge needle connected to an elevated pouch containing 250 ml of 0.9% NaCl solution. […] The PBS-injected eyes were used as vehicle controls. The contralateral eyes were used as additional controls.
After careful removal of the internal limiting membrane (ILM), retinas were placed in 12-well plates with Tris-HCl buffer at a pH of 7.8, and then shaken overnight to loosen the remaining RGCs. The retinas were then transferred to glass microscopy slides and the remaining neuronal tissues carefully dislodged through gentle agitation produced by a 20-μL pipette in Tris-HCl. Periodic acid Schiff (PAS) stain was used to visualize the isolated retinal capillary layer. An inverted fluorescence microscope was used to image the mounted capillaries, and the acellular capillaries from each treatment group were counted and analyzed.

IL-1β = test: I/R injury mouse model, retinal cytokine mRNA by quantitative real-time PCR; assay type: in vivo, mice; settings: two days after I/R injury; 0.5 μg intravitreal
Method: (§1) To measure pro-inflammatory cytokine levels, mice were sacrificed, and retinas were dissected two days after I/R injury. Total RNA was then lysed from the retinas, two micrograms of RNA was reverse-transcribed to synthesize cDNA, and quantitative real-time PCR was performed. The sequences of the PCR primers were as follows: TNF-α forward primer—5′-[…]-3′ and reverse primer—[…]-3′; IL-1β forward primer—5′-5′-[…]-3′ and reverse primer—5′-[…]-3; IFN-γ forward primer—5′-[…]-3′ and reverse primer—5′-[…]-3′. The mRNA levels were analyzed using the comparative Ct method (2-ΔΔCT) and then normalized to β-actin (forward primer—5′-[…]-3′ and reverse primer—5′-[…]-3′).

TNF-α = test: as above; assay type: in vivo, mice; settings: two days after I/R injury; 0.5 μg intravitreal
Method: as §1

Row | Substance | density ratio of cleaved caspase-3 to β-actin [1] | axonal degeneration (βIII-tubulin immunostaining) (RGCs [2]) | reduction in RGC death (compared to vehicle control group) (RGCs [2]) [%] | RGCs per mm^2 in retina after six weeks (RGCs [2]) | RGC death reduced by (compared to PBS-treated control 206) (RGCs [3]) [%] | number of acellular capillaries per retina (retinal capillary cells) | reduction of the increase in IL-1β expression compared to the vehicle group (IL-1β) [fold] | reduction of the increase in TNF-α expression compared to the vehicle group (TNF-α) [fold]
1 | SLKEKRNFDVSEVKHVLFVDP [Scr-1] | greater density ratio |  |  |  |  |  |  | 
2 | DRFSVNLDVKHFSPEELKVKV [peptain-1] | ~0.5 | inhibited axonal degeneration | 4 | over 3,200 RGCs per mm^2 | 15.7 | lower number of per-retina acellular capillaries | 4.6 | 6.2
3 | FEPSVRFSKVDHLVKENDLVK [Scr-2] | greater density ratio |  |  |  |  |  |  | 
4 | G^73HFSVLLDVK(acetyl)HFSPEEIAVK^91 [peptain-3a] |  | inhibited axonal degeneration | 12 | about 3,000 RGCs per mm^2 | 14.2 |  |  | 
